In patent US20250213614A1, “Modified RELA Protein for Inducing Interferon Expression and Engineered Immune Cells with Improved Interferon Expression” (Institut Curie, priority 2022, published 2025):

B1: RELA K5Q: RELA mutant converting five lysine residues (K122, K123, K310, K314, K315) to glutamine, acetylation mimic (protein, UniProt Q04206 1-551, looked up, variant K122Q K123Q K310Q K314Q K315Q)
Transcription factor p65: MDELFPLIFPAEPAQASGPYVEIIEQPKQRGMRFRYKCEGRSAGSIPGERSTDTTKTHPTIKINGYTGPGTVRISLVTKDPPHRPHPHELVGKDCRDGFYEAELCPDRCIHSFQNLGIQCVQQRDLEQAISQRIQTNNNPFQVPIEEQRGDYDLNAVRLCFQVTVRDPSGRPLRLPPVLSHPIFDNRAPNTAELKICRVNRNSGSCLGGDEIFLLCDKVQKEDIEVYFTGPGWEARGSFSQADVHRQVAIVFRTPPYADPSLQAPVRVSMQLRRPSDRELSEPMEFQYLPDTDDRHRIEEKRKRTYETFQSIMQQSPFSGPTDPRPPPRRIAVPSRSSASVPKPAPQPYPFTSSLSTINYDEFPTMVFPSGQISQASALAPAPPQVLPQAPAPAPAPAMVSALAQAPAPVPVLAPGPPQAVAPPAPKPTQAGEGTLSEALLQLQFDDEDLGALLGNSTDPAVFTDLASVDNSEFQQLLNQGIPVAPHTTEPMLMEYPEAITRLVTGAQRPPDPAPAPLGAPGLPNGLLSGDEDFSSIADMDFSALLSQISS

Assays:
Assay type in all cases: cell-based, human
[1] = test system: MDDC; experiment: IFN-I/III quantification (LEGENDplex) in MDDC after STING stimulation; conditions: lentivector overexpression in MDDC, cGAMP 6 μg/ml; for IFN-I/III response to cGAMP compared to the control condition: FIG. 2D
Protocol: (§1) Plasmapheresis blood pockets were obtained from healthy adult volunteers after informed consent from the EFS (Establishment of French blood collection). Peripheral blood mononuclear cells (PBMCs) were isolated using Ficoll-Paque Plus (GE-17144003) and left overnight at 4° C. in RPMI (Thermo fischer #61870-010) with 10% heat-decomplemented fetal bovine serum (FBS, Eurobio #CVFSVFO0-01). CD14+ cells were enriched by positive selection (Miltenyi #130-050-201), the CD14 negative fraction was subsequently used to isolate total CD4+ T cells by negative selection (Stem Cell #17952). CD14+ cells were cultured in RPMI containing 10% FBS, 5% Penicillin-Streptomycin (PS, Thermo Fisher #10378-016), 50 μg/ml Gentamicin (Thermo Fisher #15750-045) and 10 mM HEPES (Thermo Fisher #15630-056). CD14+ cells were differentiated ex vivo into MDDC by supplementing the culture media with 50 ng/ml IL-4 (Miltenyi #130-093-922) and 10 ng/ml GM-CSF (Miltenyi #130-093-867). MDDC were used for experiments 3 or 4 days following the start of the culture. CD14+ cells were differentiated ex vivo into macrophages by adding 50 ng/ml MCSF (Miltenyi #130-096-492) to the culture media containing RPMI with 1% PS, 5% FBS and 5% human serum (Sigma #H4522). MDM were used 7 days following culture. Freshly isolated CD4+ T cells were cultured in X-VIVO 15 (Lonza #BE02-060F) and activated using anti-CD3 and anti-CD28 Dynabeads (fisher scientific #10548353) at the ratio of 1:5 (bead:cell). 100 U/ml human IL-2 (Immunotools #11340027) was added to cultures 2 days following TCR stimulation and media with IL-2 was replenished every 48 hours. To assess proliferation, freshly isolated CD4+ T cells were stained with cell proliferation dye (thermo fischer #65-0840-85) prior to TCR stimulation.
(§2) CD14+ cells were plated at 1 million cells/ml and transduced with equal volumes of freshly harvested SIV-VLPs and pTRIP-SFFV vectors in the presence of 8 μg/ml protamine (Sigma #P4020). CD4+ T cells were transduced with lentivectors 24 hours post-TCR stimulation in 100 μl of cells (0.2 million cells) and 100 μl of freshly harvested lentivirus in the presence of 8 μg/ml protamine. T cells were spinoculated at 1200 g for 2 hours at 25° C. 0.5 million THP-1 cells in 500 μl media (RPMI 10% FBS 1% PS) were transduced with 500 μl freshly harvested lentivirus in the presence of 8 μg/ml protamine. 1 μg/ml Puromycin (Invivogen #ant-pr-1) was added 2 days post-transduction when cells were transduced with pLKO.1-puro plasmid.
(§3) For stimulation of STING by extracellular ligands, 2.5 μg of ADUS100 (invivogen #tlrl-nacda2r-01) or 2′3′-cGAMP (cGAMP, invivogen #tlrl-nacga23-02) was added to 100,000 cells in 100 μl media either on freshly isolated primary cells or 3-4 days post differentiation for MDDC and 3 days post-TCR stimulation for CD4+ T cells. Cells and supernatant were harvested 18-24 hours post stimulation. For delivery of STING ligands after permeabilization, T cells were used 3 or 4 days post TCR stimulation and MDDC were used 3-4 days following differentiation. 150,000 cells were plated in round bottom 96-well plate. Media was removed by centrifugation and 20 μl 2× permeabilization buffer (100 mM HEPES, 200 mM KCl, 6 mM MgCl2, 0.2 mM DTT, 170 mM Sucrose, 2 mM ATP, 2 mM GTP, 0.4% bovine serum albumin (BSA), 20 μg/ml digitonin) and 20 μl cGAMP (12 μg/ml) was added to cells. 18 to 20 hours following stimulation supernatants and cells were harvested. Cells were stained with a fixable viability dye (Invitrogen #65-0865-14) and acquired on a FACSVerse (BD).
For experiments with conditioned media, CD4+ T cell- and MDDC-conditioned media refer to […] filtered conditioned media from cultures of activated CD4+ T cell and MDDC, respectively. CD4+ T cells were pretreated with 100 μl of MDDC-conditioned media or of fresh MDDC culture media, 24 hours prior to cGAMP stimulation. […]

[2] = test system: CD4+ T cells; experiment: IFN-I/III quantification (LEGENDplex) in CD4+ T cells, baseline or after STING stimulation; conditions: for IFNλ1 after cGAMP stimulation: 2D, 2F; for IFNλ1 response to cGAMP under epigenetic inhibitor: CD4+ T cells, TSA 100 nM or 5AZA 2 μM, FIG. 3D
Protocol: as §1, §2
as §3, with “(BD). […]” for “(BD).”
Where indicated, cells were treated with 5-Azacytidine (5AZA, Sigma #A2385) 48 hours prior to cGAMP stimulation. Fresh 5AZA was added daily to cells, and media was replenished with 5AZA following cGAMP stimulation. 100 nM Trichostatin A (TSA) (sigma #T1952) was added to cells following cGAMP stimulation and left overnight. […]

[3] = test system: STING, TBK1, IRF3, RELA, IRF7; experiment: Western blot of key signaling proteins involved in STING signaling; conditions: for endogenous RELA expression: overexpression in CD4+ T cells and MDDC, FIG. 2C; for cGAMP-mediated STING signaling: CD4+ T cells treated with TSA or 5AZA, FIG. 3E
Protocol: 0.5 million cells were lysed for 30 minutes on ice in 50 μl RIPA buffer (50 mM Tris HCl, 150 mM NaCl, 0.1% SDS, 0.5% DOC, 1% NP-40) with Protease inhibitor (Roche #1187358001). To evaluate, phospho-proteins 50 mM NaF and 1 mM sodium orthovanadate were added to the lysis buffer. Protein lysates were cleared by centrifugation at 12,000 g for 10 to 12 minutes at 4° C. 10 μl of 6× Laemmli buffer (fisher scientific #J61337) was added to 50 μl protein lysates and samples were boiled at 95° C. for 15 minutes. Protein samples were resolved on 4%-20% Biorad precast SDS-PAGE gels (#5671125) and transferred onto PVDF membranes (BioRad #1704157). Membranes were blocked in 5% non-fat dry milk in PBS 0.1% tween or in TBS 5% BSA 0.1% Tween to detect phosphorylated proteins. Primary antibodies were used at 1:1000:phospho-STING (clone-D7C3S), STING (clone-D2P2F), serine 172 phospho-TBK1 (clone-D52C2), TBK1 (clone-D11B4), serine 396 phospho IRF3 (clone-D6O1M), IRF3 (clone-D83B9), RELA (clone-C22B4), IRF7 (clone-12G9A36), cGAS (clone-D1 D3G), Actin (clone-C4), Sendai viral proteins (Biozol #MBL-PD029). Secondary anti-rabbit or anti-mouse antibody were used at 1:10,000 (santa cruz #sc-2357, #sc-516102). ECL signal (Biorad #1705061 and #1705062) was recorded on a ChemiDoc Touch Biorad Imager. Data was analyzed and quantified with Image Lab software (Biorad). In figures, dotted lines indicate reordering of lanes from a single original membrane for visualization purpose.

[4] = test system: CD4+ T cells; experiment: Bulk RNAseq of activated CD4+ T cells after cGAMP; conditions: five hours after cGAMP 6 μg/ml
Protocol: Five hours following cGAMP (6 μg/ml) stimulation of activated CD4+ T cells, total RNA was extracted (Macherey-Nagel #740955.50). […] RNA sequencing libraries were prepared from 500 ng of total RNA using the Illumina TruSeq Stranded mRNA Library preparation kit. A first step of polyA selection using magnetic beads was performed to focus sequencing on polyadenylated transcripts. After fragmentation, cDNA synthesis was performed and resulting fragments were used for dA-tailing and ligated to the TruSeq indexed adapters. PCR amplification was performed to create the final cDNA library (with 13 cycles). After quantification of PCR products, sequencing was carried out using 2*100 cycles (paired-end reads, 100 nucleotides) on a Novaseq6000 instrument, targeting 25M clusters. The data was aligned to the hg19 (ENSEMBL annotation: v.74) genome using the RNA-seq pipeline of the Curie bioinformatics platform, rnaseq v3.1.1. Reads were trimmed with TrimGalore (v.0.6.2) and aligned on the reference genome using STAR (v 2.6.1) ^71. Quality control was done with picard (v.2.18.15), RSeQC (v.2.6.4) and preseq (v.2.0.3)^72. Read counts were generated with STAR. Quality reports were generated with MultiQC (v.1.7). […]

[5] = lentivector overexpression in CD4+ T cells, FIG. 2B

| Molecule | IFN-I/III response to cGAMP compared to the control condition [1] | IFNλ1 after cGAMP stimulation [2, 5] | endogenous RELA expression [3] | IFNλ1 response to cGAMP under epigenetic inhibitor [2] | cGAMP-mediated STING signaling [3] | also measured |
| --- | --- | --- | --- | --- | --- | --- |
| RELA: wild type human RELA protein (transcription factor p65, Uniprot Q04206), overexpressed from lentivector [reference compound] | remained unchanged | tendency for increased IFNλ1 | no impact | – | – | IFN-I/III response to cGAMP, RNA and protein levels ([1]; FIG. 2B): did not significantly enhance; IFN-I/III response to cGAMP, RNA and protein levels ([2]; lentivector overexpression in CD4+ T cells, cGAMP 6 μg/ml, FIG. 2B): did not significantly enhance |
| CC(/C=C/C(=O)NO)=C\[C@@H](C)C(=O)c1ccc(N(C)C)cc1 [TSA, Trichostatin A, reference compound] | – | – | – | reduced the already low IFNλ1 production | intact | IFN expression at baseline with RELA K5R and after cGAMP stimulation ([2]; CD4+ T cells treated with TSA): inhibits IFN expression |
| Nc1nc2c(ncn2[C@@H]2O[C@@H]3COP(=O)(O)O[C@H]4[C@@H](O)[C@H](n5cnc6c(N)ncnc65)O[C@@H]4COP(=O)(O)O[C@@H]2[C@@H]3O)c(=O)[nH]1 [cGAMP, 2′3′-cGAMP, reference compound] | – | – | – | – | – | IRF7 expression (RNAseq) [4]: induced; IFNβ protein ([2]; cGAMP delivered by digitonin-mediated membrane permeabilization, FIG. 1F): undetectable; IFN response to STING ligands ([2]; resting blood CD4+ T cells, soluble ligand 1 μg or 2.5 μg, FIG. 1B): undetectable; phosphorylated levels of STING, TBK1 and IRF3, CD4+ T cells versus MDDC ([3]; 6 hours after cGAMP 6 μg/ml, FIG. 1G): identical |
| Nc1ncn([C@@H]2O[C@H](CO)[C@@H](O)[C@H]2O)c(=O)n1 [5AZA, 5-Azacytidine, reference compound] | – | – | – | enhanced the IFNλ1 response to cGAMP | did not occur through detectable increase | – |
| B1 | remained unchanged | abrogated | no impact | – | – | – |
